Data from PubChem BioAssay AID1259407 (Chemical Carcinogenesis Research Information System (CCRIS), 2018).
Activity calls are given as the source filed them. No rule for the calls is given here.

Test system: CCRIS mutagenicity, Ames/micronucleus/aberration tests
Assay: CCRIS mutagenicity studies
[1] = Test System: AMES SALMONELLA TYPHIMURIUM, Strain/Indicator: TA98, Metabolic Activation: NONE, Method: STANDARD PLATE
[2] = Test System: AMES SALMONELLA TYPHIMURIUM, Strain/Indicator: TA98, Metabolic Activation: RAT, LIVER, S-9, AROCLOR 1254, Method: STANDARD PLATE
[3] = Test System: AMES SALMONELLA TYPHIMURIUM, Strain/Indicator: TA100, Metabolic Activation: NONE, Method: STANDARD PLATE
[4] = Test System: AMES SALMONELLA TYPHIMURIUM, Strain/Indicator: TA1537, Metabolic Activation: RAT, LIVER, S-9, AROCLOR 1254, Method: STANDARD PLATE
[5] = Test System: AMES SALMONELLA TYPHIMURIUM, Strain/Indicator: TA1538, Metabolic Activation: RAT, LIVER, S-9, AROCLOR 1254, Method: STANDARD PLATE
[6] = Test System: AMES SALMONELLA TYPHIMURIUM, Strain/Indicator: TA100, Metabolic Activation: NONE, Method: PREINCUBATION
[7] = Test System: AMES SALMONELLA TYPHIMURIUM, Strain/Indicator: TA1535, Metabolic Activation: NONE, Method: STANDARD PLATE
[8] = Test System: AMES SALMONELLA TYPHIMURIUM, Strain/Indicator: TA100, Metabolic Activation: RAT, LIVER, S-9, AROCLOR 1254, Method: STANDARD PLATE
[9] = Test System: AMES SALMONELLA TYPHIMURIUM, Strain/Indicator: TA1535, Metabolic Activation: RAT, LIVER, S-9, AROCLOR 1254, Method: STANDARD PLATE
[10] = Test System: AMES SALMONELLA TYPHIMURIUM, Strain/Indicator: TA1537, Metabolic Activation: NONE, Method: STANDARD PLATE
[11] = Test System: AMES SALMONELLA TYPHIMURIUM, Strain/Indicator: TA1538, Metabolic Activation: NONE, Method: STANDARD PLATE

SMILES | mutagenic call [1] | mutagenic call [2] | mutagenic call [3] | mutagenic call [4] | mutagenic call [5] | mutagenic call [6] | mutagenic call [7] | mutagenic call [10] | mutagenic call [11] | also measured
c1cc2ccc3ccc4ccc5ccc6ccc1c1c2c3c4c5c61 | inactive; negative | active; positive | inactive; negative | active; positive | active; positive |  |  |  |  | mutagenic call (Test System: AMES SALMONELLA TYPHIMURIUM, Strain/Indicator: TA97, Metabolic Activation: NONE, Method: STANDARD PLATE): inactive; negative; mutagenic call (Test System: AMES SALMONELLA TYPHIMURIUM, Strain/Indicator: TA97, Metabolic Activation: RAT, LIVER, S-9, PCB, Method: STANDARD PLATE): active; positive; mutagenic call (Test System: AMES SALMONELLA TYPHIMURIUM, Strain/Indicator: TA98, Metabolic Activation: RAT, LIVER, S-9, AROCLOR 1254, Method: FLUCTUATION): active; positive; mutagenic call (Test System: AMES SALMONELLA TYPHIMURIUM, Strain/Indicator: TA98, Metabolic Activation: RAT, LIVER, S-9, PCB, Method: STANDARD PLATE): active; positive; mutagenic call (Test System: AMES SALMONELLA TYPHIMURIUM, Strain/Indicator: TA100, Metabolic Activation: RAT, LIVER, S-9, PCB, Method: STANDARD PLATE): inactive; negative
C[N+]1=CC=C(c2ccccc2)CC1 |  |  |  |  |  | active; positive |  |  |  | mutagenic call (Test System: AMES SALMONELLA TYPHIMURIUM, Strain/Indicator: TA102, Metabolic Activation: NONE, Method: PREINCUBATION): inactive; negative
COc1ccc(CCC2CO2)cc1 (stereo not given) |  |  | active; positive |  |  | active; positive | active; positive |  |  | mutagenic call (Test System: AMES SALMONELLA TYPHIMURIUM, Strain/Indicator: TA1535, Metabolic Activation: NONE, Method: PREINCUBATION): active; positive
O=C(O)Cc1c[nH]c2ccccc12 | inactive; negative | inactive; negative | inactive; negative | inactive; negative | inactive; negative | inactive; negative | inactive; negative | inactive; negative | inactive; negative | mutagenic call (Test System: AMES SALMONELLA TYPHIMURIUM, Strain/Indicator: TA97A, Metabolic Activation: NONE, Method: STANDARD PLATE): inactive; negative; mutagenic call (Test System: AMES SALMONELLA TYPHIMURIUM, Strain/Indicator: TA97A, Metabolic Activation: RAT, LIVER, S-9, AROCLOR 1254, Method: STANDARD PLATE): inactive; negative; mutagenic call (Test System: AMES SALMONELLA TYPHIMURIUM, Strain/Indicator: TA98, Metabolic Activation: RAT LIVER S-9, 3-METHYLCHOLANTHRENE AND PHENOBARBITAL, Method: STANDARD PLATE): inactive; negative; mutagenic call (Test System: AMES SALMONELLA TYPHIMURIUM, Strain/Indicator: TA100, Metabolic Activation: RAT LIVER S-9, 3-METHYLCHOLANTHRENE AND PHENOBARBITAL, Method: STANDARD PLATE): inactive; negative; mutagenic call [8]: inactive; negative; mutagenic call [9]: inactive; negative
COc1ccc2nc3cc(Cl)ccc3c(NCCCNCCCl)c2n1 | active; positive |  | active; positive |  |  |  | inactive; negative | active; positive | active; positive | mutagenic call (Test System: AMES SALMONELLA TYPHIMURIUM, Strain/Indicator: TA1536, Metabolic Activation: NONE, Method: STANDARD PLATE): active; positive; mutagenic call (Test System: CHO/HGPRT, Strain/Indicator: CHO-K1-BH4, Metabolic Activation: NONE, Method: STANDARD PLATE): active; positive
C=C(C)C1CCC(=C)C2C3=C(C[C@H](C)C3=O)C(=O)C(C)=C[C@@H]12 (stereo not given in full) | inactive; negative |  | inactive; negative |  |  |  |  |  |  | mutagenic call (Test System: AMES SALMONELLA TYPHIMURIUM, Strain/Indicator: TA98, Method: STANDARD PLATE): inactive; negative; mutagenic call (Test System: AMES SALMONELLA TYPHIMURIUM, Strain/Indicator: TA100, Method: STANDARD PLATE): inactive; negative
O=S(O)(O)=S | inactive; negative | inactive; negative | inactive; negative | inactive; negative | inactive; negative |  | inactive; negative | inactive; negative | inactive; negative | mutagenic call [8]: inactive; negative; mutagenic call [9]: inactive; negative; mutagenic call (Test System: E. COLI, Strain/Indicator: WP2, Metabolic Activation: NONE, Method: STANDARD PLATE): inactive; negative; mutagenic call (Test System: E. COLI, Strain/Indicator: WP2, Metabolic Activation: RAT, LIVER, S-9, AROCLOR 1254, Method: STANDARD PLATE): inactive; negative
Nc1ccc(-c2ccc(N)c([N+](=O)[O-])c2)cc1[N+](=O)[O-] | active; positive |  | inactive; negative |  |  |  |  |  |  | mutagenic call (Test System: AMES SALMONELLA TYPHIMURIUM, Strain/Indicator: TA98(1,8-DNP6), Metabolic Activation: NONE, Method: STANDARD PLATE): inactive; negative; mutagenic call (Test System: AMES SALMONELLA TYPHIMURIUM, Strain/Indicator: TA98(1,8-DNP6), Metabolic Activation: S-9, Method: STANDARD PLATE): active; positive; mutagenic call (Test System: AMES SALMONELLA TYPHIMURIUM, Strain/Indicator: TA98, Metabolic Activation: S-9, Method: STANDARD PLATE): active; positive; mutagenic call (Test System: AMES SALMONELLA TYPHIMURIUM, Strain/Indicator: TA100, Metabolic Activation: S-9, Method: STANDARD PLATE): active; positive
O[C@@H]1[C@H]2O[C@H]2c2cc3c(ccc4ccccc43)cc2[C@H]1O |  |  |  |  |  |  |  |  |  | mutagenic call (Test System: CHINESE HAMSTER V-79, Strain/Indicator: V-79/8-AZAGUANINE, Metabolic Activation: NONE, Method: STANDARD PLATE): active; positive
c1ccc2nc3c(cc2c1)-c1cccc2cccc-3c12 | inactive; negative |  | inactive; negative |  |  |  |  |  |  | mutagenic call (Test System: AMES SALMONELLA TYPHIMURIUM, Strain/Indicator: TA98, Metabolic Activation: RAT, LIVER, S-9, Method: STANDARD PLATE): inactive; negative; mutagenic call (Test System: AMES SALMONELLA TYPHIMURIUM, Strain/Indicator: TA100, Metabolic Activation: RAT, LIVER, S-9, Method: STANDARD PLATE): inactive; negative
